Data on six compounds can be found in PMC9724248, “Anticancer peptide Q7 suppresses the growth and migration of human endometrial cancer by inhibiting DHCR24 expression and modulating the AKT-mediated pathway” (International Journal of Medical Sciences, 2022).

Holding throughout (type): cell-based, human
The subject of assay [1] is HUVEC. The conditions noted are these: MTT, 48 h, mean ± SD, ND: no detection, read-out: IC50 (50% decrease of cell viability). As to the method:
(§1) Cells were seeded into 96-well tissue culture plates at a concentration of 1×10^4 cells/200 μl/well overnight. Subsequently, the cells were treated with serial dilutions of ACP, scrambled ACP, or non-ACP. After 48 h of incubation, the cell viability of each line was determined by the MTT colorimetric assay (Sigma-Aldrich).

Assay [2] concerns HEC-1-A cells. Put plainly: MTT cytotoxicity of anticancer peptides. As to the method:
as §1

The test system of assay [3] is HEC-1-A cells. Put plainly: Wound healing assay (Culture-Insert). To be noted: peptides 50 µM, 24 h. On the procedure:
HEC-1-A cells (3×10^4 cells/70 μl/well) were seeded into a Culture-Insert 2 well (Ibidi, Munich, Germany) overnight. Afterward, inserts were removed, peptides (50 µM) were added, the status of the scratch wounds was monitored using an inverted microscope at 0 h (removal of Culture-Insert) and 24 h, and representative images were collected. The results were presented as the percentage of wound closure, calculated as follows: [wound area (initial) - wound area (final)]/wound area (initial)×100. The wound area was measured using software image J.

For assay [4], the system named is AKT. The assay can be described thus: Western blot of AKT phosphorylation. The conditions noted are these: HEC-1-A, 100 µM, 6 h (Fig. S3). On the procedure:
The cells were lysed on ice with 100 μl of lysis buffer and centrifuged at 13,000 g for 20 min at 4 °C. The lysate proteins were quantified using BCA Protein Assay Reagent. Each sample load comprised 30 μg total proteins per lane and was resolved by 12.5% SDS-PAGE. After being transferred onto the PVDF membranes, the membranes were blocked with 5% skimmed dried milk for 1 h and incubated overnight with primary antibodies, including anti-DHCR24, anti-AKT, anti-pAKT, anti-p-GSK3beta, anti-mTOR, and anti-p-mTOR (dilution: 1:1,000; Thermo); anti-S6K1, anti-p-p53, anti-cyclin D1, and anti-cleaved caspase 3 (dilution: 1:500; Thermo); anti-pS6K1 (dilution: 1:2,000; Thermo); anti-p53 and anti-GSK3beta (dilution: 1:200; Thermo); anti-BAX (dilution: 1:2,000; Thermo); anti-p-FoxO3A, anti-HIF-1α, and anti-actin (dilution: 1:1,500; GeneTex Inc., Irvine, CA, USA). The membrane was then washed and incubated with anti-rabbit IgG secondary antibodies followed by horseradish peroxidase. The protein expressions were visualized with an ECL kit (Pierce, Rockford, IL, USA) according to the manufacturer's instructions. Actin acted as the loading control.
Figure S3. Q7 repressed the phosphorylation of AKT-kinase.
After 6 h incubation of Q7 (100 µM), sQ7 and nACP, the AKT protein expression of
HEC-1-A cells was detected by using western blotting.
(1 picture or pasted object on this page, not shown here)

[5] abbreviates: HEC-1-A, MTT, 48 h, mean ± SD, read-out: IC50 (50% decrease of cell viability).

Read-outs that look alike come from different tables or passages of the source. Where no end group is shown, it is not given here.

With `CSCC[C@H](N)C(=O)N[C@@H](CCC(=O)O)C(=O)N[C@@H](Cc1ccccc1)C(=O)N[C@H](C(=O)N[C@@H](C)C(=O)N[C@@H](CCCCN)C(=O)N[C@@H](CC(C)C)C(=O)N[C@@H](Cc1ccccc1)C(=O)N[C@@H](CCCCN)C(=O)N[C@@H](Cc1ccccc1)C(=O)N[C@@H](Cc1ccccc1)C(=O)N[C@@H](CCCCN)C(=O)N[C@@H](CC(=O)O)C(=O)N[C@@H](CC(C)C)C(=O)N[C@@H](CC(C)C)C(=O)NCC(=O)N[C@@H](CCCCN)C(=O)N[C@@H](Cc1ccccc1)C(=O)N[C@@H](CC(C)C)C(=O)NCC(=O)N[C@@H](CC(N)=O)C(=O)N[C@@H](CC(N)=O)C(=O)O)C(C)C` [ACP NO. 3], the figures for the IC50 in assay [1] and in assay [2] (setting [5]) were 9.72 ± 0.84 µM and 8.78 ± 0.77 µM, respectively.

For EQQQQQQPQNRRFRE [Q7], in assay [2] (48 h), the IC50 came to 130 ± 7.53 µM.

As for FKGGGPYGQGVTRGQDLSGKDF [ACP NO. 1], the IC50 came to 29.1 ± 1.72 µM in assay [1] and 27.5 ± 2.5 µM in assay [2] (setting [5]). The like results for GLLGVLGSVAKHVLPHVVPVIAEHL [ACP NO. 8] were, in that order, 26.1 ± 2.38 µM and 23.7 ± 2.19 µM. As for “RQPQNQRQEQFQEQR [sQ7, reference compound]”, in assay [2] (HEC-1-A, MTT, 0-400 μM, 48 h (Fig. 1A), mean ± SD, read-out: fifty percent of growth inhibition concentration (IC50)), the IC50 was determined as 158 ± 13.9 µM. For “nACP: non-ACP (nACP), human HSP27_36-50 (PRLPEEWSQWLGGSS; UniProt P04792 36-50, looked up, fragment)”, the wound closure rate in assay [3] turned out to be 85%. The “level of phosphorylation of AKT” value in assay [4] was “no obvious effect”. In assay [2] (MTT, 48 h, up to 400 μM), the “toxic effects on HEC-1-A cells” value is “not obviously toxic effects”.
